Consider 13 compounds from US20020086860A1, “[1,4]Diazepino [6,7,1-jk] carbazoles and derivatives” (American Home Products Corporation, priority 2000, published 2002).

Usually Ki stands for a measure of affinity in units of concentration, obtained from inhibition or displacement. For orientation: EC50 means the concentration needed to bring the measured effect to its halfway point. A lower EC50 goes with higher potency in that assay. A word on the Emax: it is the size of the effect at its maximum, as opposed to the concentration needed. Usually melting point stands for the temperature of the solid-liquid transition. A word on the Kd: it is a measure of binding affinity in units of concentration.

Where a name gives a salt, the structure may show the parent alone. Read-outs that look alike come from different tables or passages of the source.

For series [1], the target named is T1, human 5-hydroxytryptamine2C (h5HT2C) receptor (Homo sapiens, UniProt P28335).
T1 construct: expressed in transfected cells; host or cells: CHO (Chinese Hamster Ovary) cells; membrane preparation
T1 sequence (P28335 33-458): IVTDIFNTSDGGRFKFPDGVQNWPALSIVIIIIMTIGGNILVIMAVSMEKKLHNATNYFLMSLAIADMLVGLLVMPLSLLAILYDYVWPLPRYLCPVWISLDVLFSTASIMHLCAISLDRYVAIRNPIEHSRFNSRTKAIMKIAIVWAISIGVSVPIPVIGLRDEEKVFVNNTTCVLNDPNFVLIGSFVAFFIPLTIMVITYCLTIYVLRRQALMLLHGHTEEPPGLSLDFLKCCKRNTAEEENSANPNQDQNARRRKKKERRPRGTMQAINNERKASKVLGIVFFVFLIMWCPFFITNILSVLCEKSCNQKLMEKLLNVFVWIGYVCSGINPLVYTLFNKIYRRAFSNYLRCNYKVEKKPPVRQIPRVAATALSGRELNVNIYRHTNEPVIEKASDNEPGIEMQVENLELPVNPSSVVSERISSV
The experiment in a line: 5HT2C Receptor Binding Test Procedure ([125I]DOI displacement, CHO cell membranes).

Series [2] has as its system several animal species and humans. As to conditions: Cowen et al. 1995; cited from earlier work.
The target in series [3] is T2, human 5-HT2C receptor (Homo sapiens, UniProt P28335).
T2 sequence (P28335 33-458): T1 sequence (P28335 33-458)
The experiment in a line: Stimulation of [3H] Inositol Monophosphate production by 5HT2C agonists in transfected CHO cells. Particulars: for Emax: CHO, read-out: 5HT2C % Emax (5HT, 100%).
Protocol: One (1) ml of maintenance medium containing 1 μCi/ml myo-[^3H] inositol was added to each well. After 48 hours labeling, the cells were washed once with 0.5 ml DMEM containing 25 mM HEPES and 10 mM LiCl, then preincubated with the medium for 30 min (antagonists were included in this period if tested). At the end of the preincubation, the medium was removed, the cells were then incubated with test compounds (in presence of antagonists if needed) for 30 min. The reaction was terminated by removal of the incubation solution and addition of 0.5 ml ice-cold 5% PCA, followed by 15 to 30 min incubation on ice. 200 μl of 0.5 M Tes/1.5 M K2CO3 was added to each well to neutralize to pH 7, and plates were left on ice for another 15 to 30 min to precipitate all salts. The liquid and solid phases were separated by centrifugation.
A portion (350 μl) of the upper aqueous phase was applied to Dowex AG-1×8 (formate form, 100-200 mesh) columns. The columns were then washed stepwise with 10 ml of water and 10 ml of 25 mM ammonium formate to remove free myo-[^3H]inositol and deacylated phosphoinositol, respectively. Finally 10 ml of 0.2 M ammonium formate solution was applied to the columns to elute [^3H] inositol monophosphate ([^3H] IP1) directly into scintillation vials. Of this eluate, 1 ml was used to determine radioactivity by scintillation counting.
A 3-parameter logistic function is used to generate estimate of EC50/IC50.

The subject of series [4] is male Sprague-Dawley rats. Briefly: Effects of Compounds on Feeding Behavior in Rats (food intake, 24 hr fast). It is filed as in vivo. Particulars: Rattus norvegicus, ip, dose giving 50% reduction in food intake, read-out: ED50 (mg/kg), 5HT2C Food Intake in Rats. Here is the method:
Effects of Compounds on Feeding Behavior in Rats
Eight (8) male Sprague-Dawley rats weighing 150-180 g were separated into individual cages and acclimated to a powdered diet for 2 weeks. During this period and throughout the test procedure, the food cup and the animals were weighed daily. Following the acclimation period, animals were fasted for 24 hours and then injected with either vehicle or one of 4 doses of the test compound. Food intake was assessed at 2 and 24 hours following compound administration. Compounds to be evaluated were injected 1-2× per week until all animals had received all doses of the test compound. The order of doses were chosen using to a modified Latin Square design. Additional studies may be conducted in satieted rats at the start of the dark cycle. Compounds were injected i.p, s.c. or p.o. At the end of the study effects of the test compound on food intake was evaluated using a repeated measures ANOVA. Data were collected were 2 hour food intake (g). Data were subjected to one-way ANOVA with posthoc t-tests to assess group differences. Where appropriate, ED50 values were calculated.

[5] abbreviates: read-out: Ki value and 95% confidence interval (reference compounds).

On to `CCN1CCn2c3c(c4cc(Cl)cc(c42)C1)CCCC3` [Example 9, 6-Chloro-3-ethyl-1,2,3,4,8,9,10,11-octahydro[1,4]diazepino[6,5,4-jk]carbazole], for which, in series [1], the “5HT2C Affinity DOI/Agonist binding, inhibition @ 1 μM” value was determined as 55%. For the compound `Clc1cccc(N2CCNCC2)c1` [mCPP, meta-chlorophenylpiperazine], the “effect on food intake” value in series [2] is “decreases food intake”. Take `c1cc2c3c(c1)C1CCCCC1N3CCNC2` (centres unmarked) [Example 2, 1,2,3,4,7b,8,9,10,11,11a-Decahydro-[1,4]diazepino[6,7,1-jk]carbazole]: in series [1], the Ki was 92 nM. Further, in series [3], the EC50 is 207 nM and the Emax is 70%. In series [1], `CC1(C)CCc2c(c3cccc4c3n2CCNC4)C1` [Example 4, 9,9,Dimethyl-1,2,3,4,8,9,10,11-octahydro[1,4]diazepino[6,7,1-jk]carbazole] showed a Ki of 243 nM. Turning to `CN1CCN(C2=Nc3ccccc3Oc3ccc(Cl)cc32)CC1` [Loxapine], the Ki in series [1] (setting [5]) came out at 33 nM. `CC[C@@H](CO)NC(=O)[C@@H]1C=C2c3cccc4c3c(cn4C)C[C@H]2N(C)C1` [Methysergide] gave a Ki in series [1] of 6.3 nM. The same measure, in the same setting: the value for `Clc1cc2c3c(c1)c1c(n3CCNC2)CCCC1` [Example 5, 6-Chloro-1,2,3,4,8,9,10,11-octahydro[1,4]diazepino[6,7,1-jk]cabazole] was 358 nM. As to `c1cc2c3c(c1)C1CCCCC1N3CCNC2` (centres unmarked) (as salt: hydrochloride) [Example 2, 1,2,3,4,7b,8,9,10,11,11a-Decahydro-[1,4]diazepino[6,7,1-jk]carbazole], the melting point is 265 to 269 °C. Take `Cc1nc2sccn2c(=O)c1CCN1CCC(=C(c2ccc(F)cc2)c2ccc(F)cc2)CC1` [Ritanserin]: the Ki in series [1] (setting [5]) is 2 nM.

In the case of `CC1(C)Cc2c(c3cccc4c3n2CCNC4)C(C)(C)C1` [Example 3, 8,8,10,10-Tetramethyl-1,2,3,4,8,9,10,11-octahydro[1,4]diazepino[6,7,1-jk]carbazole], the Ki in series [1] was determined as 73 nM.

`CSc1ccc2c(c1)C(N1CCN(C)CC1)Cc1ccccc1S2` (centres unmarked) [Methiothepin]: the Ki in series [1] ([125I]DOI binding, h5HT2C in CHO membranes, 95% confidence interval in brackets, read-out: Ki value and 95% confidence interval (reference compounds)) worked out at 4.6 nM. With `COc1cc(CC(C)N)c(OC)cc1I` (centres unmarked) [[^125I] DOI], in series [1] (read-out: dissociation constant, KD of [125I] DOI at the human serotonin 5HT2C receptor, saturation binding with increasing concentrations of [125I] DOI), the Kd is 0.4 nM. Regarding `c1cc2c3c(c1)c1c(n3CCNC2)CCCC1` [Example 1, 1,2,3,4,8,9,10,11-Octahydro-[1,4]diazepino[6,5,4-jk]carbazole], the ED50 in series [4] turned out to be 20.9 mg/kg. Moreover, in series [3], a half-maximal response (EC50) required 426 nM and the Emax came out at 90%.
